In PubChem BioAssay (NCI):
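A five-concentration, 48-hour dose response in 96-well plates underlies each endpoint, interpolated linearly between surrounding concentrations. At the GI50, growth is halved. TGI denotes the concentration required for complete inhibition of growth.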

What was measured:
Assay in all cases: NCI-60 cell line screen, 48 h
K-562 leukemia = tested on: K-562 leukemia
BT-549 breast = tested on: BT-549 breast
OVCAR-3 ovarian = tested on: OVCAR-3 ovarian
OVCAR-5 ovarian = tested on: OVCAR-5 ovarian
SK-MEL-5 melanoma = tested on: SK-MEL-5 melanoma
OVCAR-4 ovarian = tested on: OVCAR-4 ovarian
MALME-3M melanoma = tested on: MALME-3M melanoma
HCT-15 colon = tested on: HCT-15 colon
SNB-19 CNS = tested on: SNB-19 CNS
NCI-H23 lung = tested on: NCI-H23 lung

| SMILES | GI50 (K-562 leukemia) [µM] | TGI (K-562 leukemia) [µM] | GI50 (BT-549 breast) [µM] | TGI (BT-549 breast) [µM] | GI50 (OVCAR-3 ovarian) [µM] | TGI (OVCAR-3 ovarian) [µM] | TGI (OVCAR-5 ovarian) [µM] | TGI (SK-MEL-5 melanoma) [µM] | TGI (OVCAR-4 ovarian) [µM] | TGI (MALME-3M melanoma) [µM] | TGI (HCT-15 colon) [µM] | TGI (SNB-19 CNS) [µM] | TGI (NCI-H23 lung) [µM] | GI50 (OVCAR-5 ovarian) [µM] | GI50 (SK-MEL-5 melanoma) [µM] | GI50 (OVCAR-4 ovarian) [µM] | GI50 (MALME-3M melanoma) [µM] | GI50 (HCT-15 colon) [µM] | GI50 (SNB-19 CNS) [µM] | GI50 (NCI-H23 lung) [µM] |
| --- | --- | --- | --- | --- | --- | --- | --- | --- | --- | --- | --- | --- | --- | --- | --- | --- | --- | --- | --- | --- |
| COc1ccc2c(c1)c(-c1nc(-c3c[nH]c4ncccc34)cs1)cn2CCCCN1CCCCC1 | 1.61 | 3.49 | 1.66 | 3.13 | 1.76 | 3.24 |  |  |  |  |  |  |  |  |  |  |  |  |  |  |
| Cc1nc2ccc(S(=O)(=O)Nc3nccs3)cc2c(=O)n1NS(=O)(=O)c1nccs1 |  | > 100 |  | > 100 |  | > 100 | > 100 | > 100 | > 100 | > 100 | > 100 | > 100 | > 100 |  |  |  |  |  |  |  |
| CN(C)CCNC(=O)c1cccc2[nH]c(-c3ccccn3)nc12 |  | > 100 |  |  |  | > 100 | > 100 | 48.7 | > 78.6 | > 65.4 | > 100 | > 100 | > 100 |  |  |  |  |  |  |  |
| CCOC(=O)c1sc2nc(SC)nc(Nc3ccc4c(c3)OCCO4)c2c1N |  | > 100 |  | 32 |  | 26.7 | 54.7 | 26.7 | 30.8 | 30.5 |  | > 100 | 36.5 |  |  |  |  |  |  |  |
| CNC(C)C(O)c1ccc2oc3cc(=O)c4ccccc4c-3nc2c1 (stereo not drawn) |  | > 100 |  | > 100 |  | 28.7 | > 100 | 6.68 | 36.6 | 19.9 | > 100 | > 100 | > 100 |  |  |  |  |  |  |  |
| CCCCC1C=Cn2c(=O)oc3c(OC(C)C)c(C)c(O)c1c32 (stereo not drawn) |  | > 35.3 |  | 13.4 |  | 14.8 | 15.1 | 6.59 | 2.37 | 4.1 | 12.4 | 13.3 | 4.71 |  |  |  |  |  |  |  |
| O=C1c2ccccc2OCC12OC21C=CC(Cl)=CC1 (stereo not drawn) |  | > 100 |  | 83.7 |  | 42.1 | 81.3 | 28.3 | 46.4 | 44.8 | 86.5 | 80.3 | 37.9 |  |  |  |  |  |  |  |
| O=C(CBr)c1ccc2cc(Br)c3ccccc3c2c1 |  | 77.6 |  | 34 |  | 46.9 | 57.9 | 30.2 | 58.9 | 34.4 | > 100 | 64.6 | 35.3 |  |  |  |  |  |  |  |
| CCC(=O)OCN(C)c1nc(N(C)COC(=O)CC)nc(N(C)COC(=O)CC)n1 |  | > 100 |  | > 100 |  | > 100 | > 100 | 52.5 | > 100 | > 100 | 56 | > 100 | > 100 |  |  |  |  |  |  |  |
| O=C(N[C@@H](Cc1coc2ccccc12)B(O)O)[C@@H]1C[C@H]2CC[C@@H]1O2 | 9.99 | > 100 | 3.07 | 42.2 | 4.04 | > 100 | > 100 | 35.3 | > 100 | 20.8 | 84.9 | > 100 | > 100 | 6.8 | 4.25 | 7.36 | 3.07 | 4.54 | 4.98 | 9.18 |
| COc1ccc(C2COc3c(ccc(O)c3C)C2)cc1OC (stereo not drawn) |  | > 200 |  |  |  | > 195 | > 162 | 24.6 | > 200 | > 200 | > 200 | > 200 | > 200 |  |  |  |  |  |  |  |
| COc1ccc(/C=N/n2cnc3c(c2=O)SC(=C(C#N)C#N)N3c2ccccc2)cc1 |  | > 100 |  |  |  | > 100 | > 100 | > 100 |  |  |  | > 100 | > 100 |  |  |  |  |  |  |  |
| CCCO[C@@H]1[C@@H](OC(C)=O)[C@@H](OC(C)=O)C(C)(C)/C=C/[C@H](C)C(=O)[C@@]2(OC(C)=O)C[C@@](C)(OC(C)=O)[C@H](OC(C)=O)[C@@H]2[C@H]2OC(=O)CC[C@@]12OC(=O)c1ccccc1 |  | > 25 |  | > 25 |  | > 25 | > 25 | > 25 | > 25 | > 25 | > 25 | > 25 | > 25 |  |  |  |  |  |  |  |
| COC(=O)C1=C(OC)[C@H]2C#C/C=C\C#C[C@@H]3Nc4c(cc(O)c5c4C(=O)c4ccccc4C5=O)[C@]24O[C@@]34[C@H]1C |  | 0.0139 |  | < 0.0339 |  | 0.113 | 0.0311 | < 0.0149 | 0.2 | 0.103 | 0.0147 |  | < 0.01 |  |  |  |  |  |  |  |
| C/C(=N\NC(=S)N1CCCC1)c1nc2ncccc2[nH]1 |  | 37 |  | 13 |  | > 100 | 20.7 | 2.93 | 18.6 | 63.9 | > 100 | 17.1 | 22.1 |  |  |  |  |  |  |  |
| C(=Nc1ccc2c(c1)Cc1ccccc1-2)c1ccccn1 |  | > 100 |  | > 100 |  | > 100 | > 100 | > 100 | > 100 | > 100 | > 100 | > 100 | > 100 |  |  |  |  |  |  |  |
